Like-named read-outs stand apart in the source and are kept apart here.
Key:
Escherichia coli [1] = assay: Broth microdilution MIC (Example 11)
Klebsiella pneumoniae [2] = assay: Broth microdilution MIC (Example 11)
Enterobacter cloacae = assay: Broth microdilution MIC (Example 11); conditions: ATCCBAA2468
Pseudomonas aeruginosa = assay: Broth microdilution MIC (Example 11); conditions: Pseudomonas aeruginosa
Acinetobacter baumannii [3] = assay: Broth microdilution MIC (Example 11); conditions: Acinetobacter baumannii
[4] = test system: Staphylococcus aureus (MRSA); assay: Broth microdilution MIC (Example 11)
E. faecalis = assay: Broth microdilution MIC (Example 11); conditions: Enterococcus faecalis, VRE, VRE Lev^R Cip^R Ery^R
S. pneumoniae = assay: Broth microdilution MIC (Example 11); conditions: Streptococcus pneumoniae
S. pyogenes = assay: Broth microdilution MIC (Example 11); conditions: Streptococcus pyogenes
S. agalactiae = assay: Broth microdilution MIC (Example 11); conditions: Streptococcus agalactiae
Escherichia coli [5] = assay: Broth microdilution MIC (Example 12); conditions: Escherichia coli
Klebsiella pneumoniae [6] = assay: Broth microdilution MIC (Example 12); conditions: Klebsiella pneumoniae
Acinetobacter baumannii [7] = assay: Broth microdilution MIC (Example 12); conditions: Acinetobacter baumannii
[8] = test system: Pseudomonas aeruginosa strain PA01; assay: Bacterial killing curves with and without CF patient sputum; parameters: time to sterilization below the limit of detection: dose or concentration left out as unconfirmed

CC(S)C(C)S.[Bi] (stereo not shown) [BisBDT, bismuth-2,3-butanedithiol]
8 µg/mL: MIC (S. pneumoniae; S. pneumoniae MMX 937, Mem^R SXT^R CC^R Ery^R Pen^R)
≤ 0.06 µg/mL: MIC ([4]; ATCC29213 / MRSA / MSSA) | MIC ([4]; MRSA)
1 µg/mL: MIC (Escherichia coli [1]; ATCCBAA2469, E. coli MMX 5980 (ATCC BAA-2469), NDM-1, Lev^R, MEM^R, CAZ^R, Gm^R) | MIC (Escherichia coli [1]; E. coli MMX 8423, ESBL, Lev^R, CAZ^R, Gm^R) | MIC (Escherichia coli [1]; E. coli MMX 8425, ESBL, Lev^R, CAZ^R, Gm^R) | MIC (Klebsiella pneumoniae [2]; K. pneumoniae MMX 4622, KPC-2, MEM^R, CAZ^R) | MIC (Klebsiella pneumoniae [2]; K. pneumoniae MMX 4683, KPC-2, Lev^R, MEM^R, CAZ^R) | MIC (Klebsiella pneumoniae [2]; K. pneumoniae MMX 4685, ESBL, Lev^R, MEM^R, CAZ^R) | MIC (Klebsiella pneumoniae [2]; K. pneumoniae MMX 4694, KPC-3, Lev^R, MEM^R, CAZ^R) | MIC (Klebsiella pneumoniae [2]; K. pneumoniae MMX 5979, NDM-1, Lev^R, MEM^R, CAZ^R, Gm^R) | MIC (Pseudomonas aeruginosa; ATCC27853, P. aeruginosa MMX 103 (ATCC 27853), QC) | MIC (Pseudomonas aeruginosa; P. aeruginosa MMX 1381, MDR, Lev^R, Cip^R, MEM^R, CAZ^R) | MIC (Acinetobacter baumannii [3]; A. baumannii MMX 3372, MDR, Cip^R, MEM^I, CAZ^I) | MIC (S. pneumoniae; S. pneumoniae MMX 3959, CC^R Ery^R) | MIC (S. pyogenes; S. pyogenes MMX 5091, ERY^R CC^R) | MIC (Escherichia coli [5]; ATCC25922, E. coli ATCC 25922, QC organism) | MIC (Escherichia coli [5]; ATCC35218, E. coli ATCC 35218, ESBL) | MIC (Escherichia coli [5]; ATCC35218, E. coli ATCC 35218, QC organism (Table 102)) | MIC (Escherichia coli [5]; E. coli CDC 118, ESBL/NDM) | MIC (Escherichia coli [5]; E. coli CDC 435, NDM) | MIC (Escherichia coli [5]; E. coli CDC 451, KPC) | MIC (Escherichia coli [5]; E. coli MMX 5756, ESBL) | MIC (Escherichia coli [5]; E. coli MMX 5758, ESBL) | MIC (Klebsiella pneumoniae [6]; ATCCBAA1705, K. pneumoniae ATCC BAA-1705, ESBL/KPC) | MIC (Klebsiella pneumoniae [6]; ATCCBAA1705, K. pneumoniae ATCC BAA-1705, QC organism (Table 102)) | MIC (Klebsiella pneumoniae [6]; K. pneumoniae CDC 113, ESBL/KPC) | MIC (Acinetobacter baumannii [7]; A. baumannii CDC 277, ESBL/OXA) | MIC (Acinetobacter baumannii [7]; A. baumannii CDC 284, ESBL/OXA)
≤ 5 h: time to sterilization below the limit of detection ([8]; with and without sputum)
0.12 µg/mL: MIC (S. pyogenes; S. pyogenes MMX 3068, Ery^R)
4 µg/mL: MIC (Klebsiella pneumoniae [6]; K. pneumoniae CDC 129, ESBL/KPC) | MIC (Klebsiella pneumoniae [6]; K. pneumoniae CDC 135, ESBL/VIM)
0.25 µg/mL: MIC (E. faecalis; E. faecalis MMX 8961) | MIC (E. faecalis; E. faecalis MMX 8962) | MIC (S. agalactiae; S. agalactiae MMX 3741, ERY^R CC^R) | MIC (S. agalactiae; S. agalactiae MMX 3743, ERY^R CC^R) | MIC (S. agalactiae; S. agalactiae MMX 4077, ERY^R CC^R) | MIC (S. agalactiae; S. agalactiae MMX 4086, ERY^R CC^R)
not bactericidal: bactericidal activity against PA01 ([8]; 0.1 μg/mL)
0.5 to 8 µg/mL: MIC (S. pneumoniae; read-out: MIC values, pneumococci incl. multi-drug resistant)
0.03 µg/mL: MIC (S. pyogenes; S. pyogenes MMX 3919, ERY^R)
partially inhibited: effect of CF patient sputum on bactericidal activity ([8]; 10% CF patient sputum)
0.5 µg/mL: MIC (Escherichia coli [1]; ATCC25922, E. coli MMX 102 (ATCC 25922), QC) | MIC (Escherichia coli [1]; E. coli MMX 8424, ESBL, CAZ^R) | MIC (Klebsiella pneumoniae [2]; K. pneumoniae MMX 4623, KPC-2, MEM^R, CAZ^R, GM^R) | MIC (Acinetobacter baumannii [3]; A. baumannii MMX 2592, MDR, Lev^R, Cip^R, MEM^R, CAZ^R, Gm^R) | MIC (Acinetobacter baumannii [3]; A. baumannii MMX 2593, MDR, Lev^R, Cip^R, MEM^R, CAZ^R, Gm^R) | MIC (Acinetobacter baumannii [3]; A. baumannii MMX 3373, Sensitive) | MIC (Acinetobacter baumannii [3]; NCTC13304, A. baumannii MMX 4651 (NCTC 13304), MDR, OXA-27, Lev^R, Cip^R, MEM^R, CAZ^R, Gm^I) | MIC (E. faecalis; E. faecalis MMX 8960) | MIC (S. pneumoniae; ATCC49619, S. pneumoniae MMX 6837 (ATCC 49619), QC) | MIC (S. pneumoniae; S. pneumoniae MMX 880, Lev^R SXT^R CC^R Ery^R Pen^R) | MIC (S. pneumoniae; S. pneumoniae MMX 5440, Mem^R SXT^R CC^R Ery^R Pen^R) | MIC (S. pneumoniae; S. pneumoniae MMX 5445, Mem^R SXT^R CC^R Ery^R Pen^R) | MIC (S. pneumoniae; S. pneumoniae MMX 8133, Mem^R SXT^R CC^R Ery^R Pen^R) | MIC (S. pyogenes; S. pyogenes MMX 3820, ERY^R CLI^R) | MIC (S. pyogenes; S. pyogenes MMX 3929, ERY^R CC^R) | MIC (S. agalactiae; S. agalactiae MMX 4079, ERY^R CC^R Pen^R MEM^R) | MIC (Acinetobacter baumannii [7]; A. baumannii CDC 273, ESBL/OXA) | MIC (Acinetobacter baumannii [7]; A. baumannii CDC 274, ESBL/OXA) | MIC (Acinetobacter baumannii [7]; A. baumannii CDC 275, ESBL/OXA) | MIC (Acinetobacter baumannii [7]; A. baumannii CDC 307, OXA) | MIC (Acinetobacter baumannii [7]; A. baumannii CDC 308, ESBL/OXA) | MIC (Acinetobacter baumannii [7]; A. baumannii CDC 311, OXA) | MIC (Acinetobacter baumannii [7]; A. baumannii CDC 312, OXA) | MIC (Acinetobacter baumannii [7]; A. baumannii CDC 313, ESBL/OXA) | MIC (Acinetobacter baumannii [7]; NCTC13304, A. baumannii NCTC 13304, OXA)
< 0.06 µg/mL: MIC ([4]; MRSA, read-out: MIC values)
2 µg/mL: MIC (Klebsiella pneumoniae [2]; K. pneumoniae MMX 4653, KPC-3, Lev^R, MEM^R, CAZ^R) | MIC (Klebsiella pneumoniae [2]; K. pneumoniae MMX 4684, ESBL, MEM^R) | MIC (Enterobacter cloacae) | MIC (Pseudomonas aeruginosa; P. aeruginosa MMX 2562, MDR, Lev^R, Cip^R, MEM^R, CAZ^R) | MIC (Pseudomonas aeruginosa; P. aeruginosa MMX 3991, MDR, Lev^R, Cip^R, MEM^R, CAZ^R) | MIC (Pseudomonas aeruginosa; P. aeruginosa MMX 4654, IMP-7, Lev^R, Cip^R, MEM^R, CAZ^R) | MIC (Pseudomonas aeruginosa; P. aeruginosa MMX 4697, VIM-2, Lev^R, Cip^R, MEM^R, CAZ^R) | MIC (Escherichia coli [5]; ATCCBAA2471, E. coli ATCC BAA-2471, NDM) | MIC (Escherichia coli [5]; E. coli CDC 114, ESBL/KPC) | MIC (Escherichia coli [5]; E. coli CDC 503, ESBL/NDM) | MIC (Escherichia coli [5]; E. coli MMX 5745, KPC) | MIC (Escherichia coli [5]; E. coli MMX 5755, ESBL) | MIC (Klebsiella pneumoniae [6]; K. pneumoniae CDC 112, KPC) | MIC (Klebsiella pneumoniae [6]; K. pneumoniae CDC 115, ESBL/KPC) | MIC (Klebsiella pneumoniae [6]; K. pneumoniae CDC 120, ESBL/KPC) | MIC (Klebsiella pneumoniae [6]; K. pneumoniae CDC 126, ESBL/KPC) | MIC (Klebsiella pneumoniae [6]; K. pneumoniae CDC 138, ESBL/NDM) | MIC (Klebsiella pneumoniae [6]; K. pneumoniae CDC 158, ESBL/NDM/OXA) | MIC (Klebsiella pneumoniae [6]; K. pneumoniae MMX 9029, ESBL)

— patent publication US11464749B2, “Bismuth-thiol compositions and methods of use” (Microbion Corporation, priority 2018, dated 2022)
